Experimental data: patent publication US10085993B2, “Tablet formulation of 2-fluoro-N-methyl-4-[ 7-( quinolin-6-ylmethyl) imidazo [1,2-B] [1,2,4] triazin-2-yl] benzamide” (Novartis AG, priority 2014, dated 2018)
Counter-ions that a name gives are not always drawn.

Experiments:
[1] = Gelling behavior; format: physicochemical; conditions: gelling can compromise tablet disintegration and dissolution rate
Excerpt: 2-fluoro-N-methyl-4-[7-(quinolin-6-ylmethyl)imidazo[1,2-b][1,2,4]triazin-2-yl]benzamide dihydrochloride has a gelling behavior, mostly prominent at pHs above 3.5, which can compromise tablet disintegration and dissolution rate. Drug load and disintegrant type/levels can influence this behavior and need to be carefully selected to ensure adequate in vitro performance.

[2] = Bulk density; format: physicochemical
Excerpt: 2-fluoro-N-methyl-4-[7-(quinolin-6-ylmethyl)imidazo[1,2-b][1,2,4]triazin-2-yl]benzamide dihydrochloride has a very low bulk density (0.085 g/mL), which justifies the need of a densification step prior tabletting. Wet granulation was identified as the most suitable technology for this compound.

[3] = Solubility at different pH

For `CNC(=O)c1ccc(-c2cnc3ncc(Cc4ccc5ncccc5c4)n3n2)cc1F` [2-fluoro-N-methyl-4-[7-(quinolin-6-ylmethyl)imidazo[1,2-b][1,2,4]triazin-2-yl]benzamide dihydrochloride], the “pH at which gelling behavior is mostly prominent” value [1] was “above 3.5”, the bulk density [2] was 0.085 g/mL and the solubility ([3]; pH 1, simulated gastric fluid) was 7200 µg/mL. It also gave a solubility ([3]; pH 6.8, aqueous buffer) of 79.3 µg/mL.
